Key:
Type in all cases: functional, Homo sapiens
[1] = tested on: TERT-RPE1; assay: (§1) Here: values are normalized to the negative (DMSO; defined as 0% autophagy induction) and positive (250nM Torin1; mTOR inhibitor; defined as maximal inducer of autophagy = 100%) control compounds and represented as % of autophagy induction. […] The impact of autophagy induction on cells is complex and depends on the affected target. As such, the magnitude of a phenotype may not be equally mirrored in the %-value of autophagy induction and vice versa. The dynamics of the induction may indicate the mode of activation: e.g. activation via phosphorylation or a signaling cascade may occur fast, while activation via transcription factors may take considerably longer. […] Of note, treatment concentrations may be sub-optimal for specific compounds, leading to false negative annotations.; conditions: Culturing Media DMEM/F12 (1:1), 1 % Penicillin/Streptomycin, 10% Fetal bovin serum Add-On: No, Screening Media Control DMEM/F12 (1:1), Screening Media Samples DMEM/F12 (1:1)
[2] = tested on: U2OS; assay: as §1; conditions: Culturing Media DMEM, 1 % Penicillin/Streptomycin, 10% Fetal bovin serum Add-On: No, Screening Media Control DMEM, Screening Media Samples DMEM
[3] = tested on: U2OS; assay: as §1; conditions: Culturing Media DMEM, 1 % Penicillin/Streptomycin, 10% Fetal bovin serum Add-On: No, Screening Media Control DMEM, Screening Media Samples DMEM; remark: listed apart in the source
[4] = Compound Concentration 0.5 uM, Timepoint 12 hours
[5] = Compound Concentration 0.5 uM, Timepoint 24 hours
[6] = Compound Concentration 0.5 uM, Timepoint 36 hours
[7] = Compound Concentration 0.5 uM, Timepoint 60 hours
[8] = Compound Concentration 2 uM, Timepoint 12 hours
[9] = Compound Concentration 2 uM, Timepoint 24 hours
[10] = Compound Concentration 2 uM, Timepoint 36 hours
[11] = Compound Concentration 2 uM, Timepoint 60 hours
[12] = Compound Concentration 10 uM, Timepoint 12 hours
[13] = Compound Concentration 10 uM, Timepoint 24 hours
[14] = Compound Concentration 10 uM, Timepoint 36 hours
[15] = Compound Concentration 10 uM, Timepoint 60 hours

## Cc1c(C2=CCN(C(=O)N(C)C(C)C)CC2)nnn1-c1cccnc1F
[1]; [4]
  autophagy induction: -7.351%
[1]; [5]
  autophagy induction: -10.2554%
[1]; [6]
  autophagy induction: -12.7414%
[1]; [7]
  autophagy induction: -13.7381%
[1]; [8]
  autophagy induction: -4.799%
[1]; [9]
  autophagy induction: -6.124%
[1]; [10]
  autophagy induction: -8.583%
[1]; [11]
  autophagy induction: -9.595%
[1]; [12]
  autophagy induction: -1.3221%
[1]; [13]
  autophagy induction: -2.795%
[1]; [14]
  autophagy induction: -0.6234%
[1]; [15]
  autophagy induction: 3.817%
[2]; [4]
  autophagy induction: 2.838%
[2]; [5]
  autophagy induction: 0.05909%
[2]; [6]
  autophagy induction: -0.5317%
[2]; [7]
  autophagy induction: -0.9964%
[2]; [8]
  autophagy induction: -1.633%
[2]; [9]
  autophagy induction: -1.565%
[2]; [10]
  autophagy induction: -0.7182%
[2]; [11]
  autophagy induction: -1.565%
[2]; [12]
  autophagy induction: 1.202%
[2]; [13]
  autophagy induction: 0.8484%
[2]; [14]
  autophagy induction: 0.458%
[2]; [15]
  autophagy induction: -1.904%
[3]; [4]
  autophagy induction: 23.3711%
[3]; [5]
  autophagy induction: 12.0378%
[3]; [6]
  autophagy induction: 26.6789%
[3]; [7]
  autophagy induction: 23.6658%
[3]; [8]
  autophagy induction: -5.386%
[3]; [9]
  autophagy induction: -5.642%
[3]; [10]
  autophagy induction: -9.747%
[3]; [11]
  autophagy induction: -4.534%
[3]; [12]
  autophagy induction: -2.977%
[3]; [13]
  autophagy induction: 0.8858%
[3]; [14]
  autophagy induction: -1.59%
[3]; [15]
  autophagy induction: 4.327%

## CC(C)NC(=O)c1ccc(C#Cc2ccncc2)cn1
[1]; [4]
  autophagy induction: -8.654%
[1]; [5]
  autophagy induction: -9.257%
[1]; [6]
  autophagy induction: -14.0532%
[1]; [7]
  autophagy induction: -16.4507%
[1]; [8]
  autophagy induction: -4.036%
[1]; [9]
  autophagy induction: -5.1239%
[1]; [10]
  autophagy induction: -6.815%
[1]; [11]
  autophagy induction: -8.286%
[1]; [12]
  autophagy induction: 1.565%
[1]; [13]
  autophagy induction: 2.778%
[1]; [14]
  autophagy induction: 9.008%
[1]; [15]
  autophagy induction: 16.9694%
[2]; [4]
  autophagy induction: -9.113%
[2]; [5]
  autophagy induction: -5.012%
[2]; [6]
  autophagy induction: -3.818%
[2]; [7]
  autophagy induction: -1.861%
[2]; [8]
  autophagy induction: -10.7877%
[2]; [9]
  autophagy induction: -3.358%
[2]; [10]
  autophagy induction: -2.622%
[2]; [11]
  autophagy induction: -1.746%
[2]; [12]
  autophagy induction: -0.7026%
[2]; [13]
  autophagy induction: -0.9948%
[2]; [14]
  autophagy induction: -1.134%
[2]; [15]
  autophagy induction: -0.8185%
[3]; [4]
  autophagy induction: 0.5322%
[3]; [5]
  autophagy induction: 0.2252%
[3]; [6]
  autophagy induction: -0.5555%
[3]; [7]
  autophagy induction: 0.1744%
[3]; [8]
  autophagy induction: 1.689%
[3]; [9]
  autophagy induction: 1.76%
[3]; [10]
  autophagy induction: 0.3174%
[3]; [11]
  autophagy induction: -4.895%
[3]; [12]
  autophagy induction: -23.095%
[3]; [13]
  autophagy induction: -7.509%
[3]; [14]
  autophagy induction: -0.1897%
[3]; [15]
  autophagy induction: 10.5553%

## CCOC(=O)c1cc(C#N)c(N2CCC(C(=O)NS(=O)(=O)Cc3ccccc3)CC2)nc1C
[1]; [4]
  autophagy induction: -6.976%
[1]; [5]
  autophagy induction: -10.3002%
[1]; [6]
  autophagy induction: -8.825%
[1]; [7]
  autophagy induction: -14.4044%
[1]; [8]
  autophagy induction: -3.0862%
[1]; [9]
  autophagy induction: -5.808%
[1]; [10]
  autophagy induction: -6.285%
[1]; [11]
  autophagy induction: -11.624%
[1]; [12]
  autophagy induction: -2.8574%
[1]; [13]
  autophagy induction: -4.514%
[1]; [14]
  autophagy induction: -6.439%
[1]; [15]
  autophagy induction: -9.708%
[2]; [4]
  autophagy induction: -5.45%
[2]; [5]
  autophagy induction: -2.451%
[2]; [6]
  autophagy induction: -3.099%
[2]; [7]
  autophagy induction: -2.587%
[2]; [8]
  autophagy induction: 4.284%
[2]; [9]
  autophagy induction: 0.2818%
[2]; [10]
  autophagy induction: 0.3824%
[2]; [11]
  autophagy induction: -0.02347%
[2]; [12]
  autophagy induction: -3.626%
[2]; [13]
  autophagy induction: -2.74%
[2]; [14]
  autophagy induction: -1.363%
[2]; [15]
  autophagy induction: -0.00442%
[3]; [4]
  autophagy induction: -1.238%
[3]; [5]
  autophagy induction: -0.869%
[3]; [6]
  autophagy induction: -0.6019%
[3]; [7]
  autophagy induction: -13.2748%
[3]; [8]
  autophagy induction: -11.375%
[3]; [9]
  autophagy induction: -8.508%
[3]; [10]
  autophagy induction: -7.086%
[3]; [11]
  autophagy induction: -3.832%
[3]; [12]
  autophagy induction: -0.3683%
[3]; [13]
  autophagy induction: 1.86%
[3]; [14]
  autophagy induction: -9.343%
[3]; [15]
  autophagy induction: -16.8017%

Reference: ChEMBL document CHEMBL5724696, “Autophagy assay results for EUbOPEN Chemogenomics Library” (2024)
